Assay: Biopharmaceutical Classification System class
Format: physicochemical
Conditions: solubility and permeability limited oral absorption

SMILES: CC(C)(C)OC(=O)N[C@H]1CCCCC/C=C\[C@@H]2C[C@@]2(C(=O)NS(=O)(=O)C2CC2)NC(=O)[C@@H]2C[C@@H](OC(=O)N3Cc4cccc(F)c4C3)CN2C1=O [Compound I, 4-fluoro-1,3-dihydro-isoindole-2-carboxylic acid (Z)-(1S,4R,6S,14S, 18R)-14-tert-butoxycarbonylamino-4-cyclopropanesulfonylaminocarbonyl-2,15-dioxo-3,16-diaza-tricyclo[14.3.0.0^4,6]nonadec-7-en-18-yl ester]
- Biopharmaceutical Classification System class: Class 4

From patent US20130331314A1, “PHARMACEUTICAL COMPOSITION FOR TREATING HCV INFECTIONS” (Hoffmann-La Roche Inc., priority 2010, published 2013)
